Results published in patent US11013219B2, “Metabolism-based drug screening platform in bioengineered zebrafish” (Path Therapeutics, Inc., priority 2014, dated 2021).

Tests used:
park2 morphants = assay: Seahorse basal respiration, park2 morphants (Parkinson's Disease model); assay type: in vivo, zebrafish; settings: park2-MO
Experimental: (§1) Next, all positive hits were assayed for improve bioenergetics using Seahorse bioanalyzer (Seahorse, Inc). Briefly, morphant zebrafish were seeded into 24-well Islet Flux plates (Seahorse) and incubated with compound or vehicle for 10 minutes prior to analysis. Complete mitochondrial profile was assessed for each individual larvae. Drugs that improved bioenergetics by 40% were considered candidate drugs.
(§2) Morpholinos directed to scn1a (epilepsy), park2 (neurodegenerative disease), idh1 (brain tumors (astrocytoma/oligodendrogliomas), cdkn2b (oligodendroglioma), h3f3a (oligodendroglioma), snf5 (smarcbla in zebrafish; Atypical Teratoid/Rhabdoid)), and shank3 (Autism Spectrum Disorder) were created and zebrafish larvae exposed as detailed in Example 3.

scn1a morphants [1] = assay: Drug-discovery platform (locomotor screen, then Seahorse), scn1a morphant genetic model; assay type: in vivo, zebrafish; settings: blinded study
Experimental: (§3) 10 mM stock solutions of drugs in DMSO were stored at −80° C. and on the day of assay were diluted in E3 medium to a final concentration of 20 μM. For behavioral assays and Seahorse bioenergetics, 20 μM final concentration was used. Adult wild-type TL zebrafish were raised at the Kurrasch Aquatic Research Laboratory at the University of Calgary under standard conditions (28° C., 14 h light/10 h dark cycle) on a recirculating water system.
(§4) Embryos were obtained by natural spawning from mating pairs, screened for viability and for kcna1 and scn1a morpholino models, embryos were injected with either the kcna1- or scn1a-targeting morpholino at the one cell stage. The embryos were sorted for uptake of the morpholino four hours post-injection and seeded to 96 well plates, wrapped in aluminum foil (i.e., raised in the dark), maintained in a non-CO2 incubator at 28.5° C. until 5 dpf.
(§5) On the day of assay, for the kcna1 and scn1a morpholino models, fish were habituated for 20 minutes under 100% light treated with 20 μm of drugs for 20 minutes, and then assayed for locomotor activity in dark for 20 minutes in the zebrabox (Viewpoint Lifesciences, Lyon, Fr). Larval locomotor activity was analyzed using Zebralab V3 software (Viewpoint Lifesciences, Lyon, Fr). For the PTZ model, at 5 dpf, fish were treated with 10 mM PTZ for 10 minutes and then with 20 μM of drugs for 20 minutes under ambient light, and then assayed for locomotor activity under 100% light for 20 minutes in the zebrabox (Viewpoint Lifesciences, Lyon, Fr). Larval locomotor activity was analyzed using Zebralab V3 software (Viewpoint Lifesciences, Lyon, France).
(§6) For the Seahorse bioenergetics measurements, microinjected kcna1 or scn1a morphants or WT zebrafish were maintained in 96 well plates as previously described. XF24 extracellular flux assay plates (Seahorse Bioscience; Massachusetts), were hydrated overnight with XF Calibrant (pH 7.4). […]

kcna1 morphants = assay: Drug-discovery platform (locomotor screen, then Seahorse), kcna1 morphant genetic model; assay type: in vivo, zebrafish; settings: blinded study
Experimental: as §3, §4, §5, §6

kcna1 mutants = assay: Seahorse basal respiration, kcna1 genetic mutant larvae; assay type: in vivo, zebrafish; settings: larvae with increased basal respiration washed with PBS and treated
Experimental: This example confirms that the results of drug screens using zebrafish morphants are the same in zebrafish bearing corresponding germline mutations. kcna1^+/− zebrafish were generated as described in Example 1. Heterozygous kcna1^+/− F1s were incrossed and the offspring examined in a behavioral monitoring chamber (Zebralab). We assume ¾ of the progeny are WT or heterozygotes and ¼ are mutants.
Next, a similar experiment was conducted to confirm that kcna1 mutants display a similar phenotype for mitochondrial function (e.g., increased mitochondrial function). Larvae were seeded into 24-well plates and assayed in the Seahorse machine for altered bioenergetics as discussed above. […] Increased basal respiration levels in approximately 25% of the embryos were also detected, as would be expected for a homozygous recessive mutation. […] Genotype was subsequently confirmed by qPCR (FIG. 9D).

[2] = system: PTZ-induced hyperactive zebrafish; assay: Seahorse bioenergetic analysis, PTZ-treated larvae; assay type: in vivo; settings: Seahorse Bioanalyzer
From the text: One exemplary protocol for measuring oxygen consumption rates (OCR) using Extracellular Flux Analyzer (Seahorse Bioscience, Billerica Mass.) is described below. First, sensor cartridges are hydrated in XF Calibrant Solution in 24-well cell culture microplates overnight at 28.5 C. Prior to experiment, injection ports are filled with appropriate treatments and loaded into XH24 instrument. Staged zebrafish embryos (3 days post fertilization used here) are individually placed in 20 of the 24 wells (4 wells serve as controls) on the islet microplate filled with E3 buffer and islet plate capture screens are placed on top to keep living zebrafish from moving during experiment. Plates are loaded into the instrument and six measurement cycles were taken to establish basal rates, which were then followed by treatment injections and 18 additional measurement cycles. OCRs were calculated at cycles five and six and then averaged to create the basal respiration. […]
Next, all positive hits were assayed for improve bioenergetics using Seahorse bioanalyzer (Seahorse, Inc). […] Complete mitochondrial profile was assessed for each individual larvae. […]
FIG. 4 provides workflow and results of bioenergetic analyses in a hyperactive zebrafish. […] Basal, maximal, non-mitochondrial, and mitochondrial cellular respiration were measured.

scn1a morphants [3] = assay: Seahorse basal respiration, scn1a morphants; assay type: in vivo; settings: scn1a-MO zebrafish
Experimental: as §1, §2

kcna1 morphant zebrafish = assay: Seahorse bioenergetic analysis, kcna1 morphants; assay type: in vivo; settings: Seahorse Bioanalyzer; for effect on elevated basal respiration in kcna1 morphant larvae: 24-well plate
From the text: One exemplary protocol for measuring oxygen consumption rates (OCR) using Extracellular Flux Analyzer (Seahorse Bioscience, Billerica Mass.) is described below. First, sensor cartridges are hydrated in XF Calibrant Solution in 24-well cell culture microplates overnight at 28.5 C. Prior to experiment, injection ports are filled with appropriate treatments and loaded into XH24 instrument. Staged zebrafish embryos (3 days post fertilization used here) are individually placed in 20 of the 24 wells (4 wells serve as controls) on the islet microplate filled with E3 buffer and islet plate capture screens are placed on top to keep living zebrafish from moving during experiment. Plates are loaded into the instrument and six measurement cycles were taken to establish basal rates, which were then followed by treatment injections and 18 additional measurement cycles. OCRs were calculated at cycles five and six and then averaged to create the basal respiration. FCCP treatment was used to measure maximum OCR and oligomycin was used to measure minimum OCR.
as §1
FIG. 4 provides workflow and results of bioenergetic analyses in a hyperactive zebrafish. […] The plates were loaded into XFe24 Seahorse Bioanalyzer. Basal, maximal, non-mitochondrial, and mitochondrial cellular respiration were measured.

[4] = system: kcna1 zebrafish morphants; assay: Behavioral hyperactivity (locomotion) assay, kcna1 morphants; assay type: in vivo; settings: larvae 5 days post fertilization; 10 minutes preincubation, assayed 20 minutes
Experimental: This Example utilizes the drug screening assay disclosed herein using morpholino-injected embryos to transiently knockdown genes of interest. Here, we compare three “epileptic” models for phenotypes in the behavioral assay: pharmacological-induction model (PTZ) and two genetic knockdown models (kcna1 and scn1a morphants).
Larvae were treated with morpholinos to kcna1 and scn1a as described above.
Zebrafish larvae (5 days post fertilization) were seeded into 96 well microliter plates containing vehicle solution and monitored for 20 minutes for hyperactivity. Morphants and WT zebrafish were exposed to drug for 10 minutes preincubation and then assayed for changes in hyperactivity for 20 minutes (Zebralab box). Drugs that decreased hyperactivity behavior by 40% in morphants were identified as “positive hits.”
These positive hits were then verified by conducting a dose-response relationship using hyperactivity as readout.

shank3 morphants = assay: Seahorse basal respiration, shank3 morphants (ASD and schizophrenia model); assay type: in vivo, zebrafish; settings: shank3-MO
Experimental: as §1, §2

smarcbla morphants = assay: Seahorse basal respiration, smarcbla morphants (AT/RT model); assay type: in vivo, zebrafish; settings: smarcbla-MO
Experimental: Next, all positive hits were assayed for improve bioenergetics using Seahorse bioanalyzer (Seahorse, Inc). Briefly, morphant zebrafish were seeded into 24-well Islet Flux plates (Seahorse) and incubated with compound or vehicle for 10 minutes prior to analysis. Complete mitochondrial profile was assessed for each individual larvae.
as §2

cdkn2b morphants = assay: Seahorse basal respiration, cdkn2b morphants (glioblastoma model); assay type: in vivo, zebrafish; settings: cdkn2b-MO
Experimental: as §1, §2

Kv1.1 null mice = assay: Video EEG seizure recording in Kv1.1 rodent model; assay type: in vivo; settings: three Kv1.1−/− mice; 20 mg/kg, twice a day, three consecutive days (PND 46-48) vs no treatment (PND 43-45); Two-way ANOVA, F=27.7, p<0.01
Experimental: Second, candidate drugs that decrease interictal-and/or ictal-like activity in mutant zebrafish lines are then validated in rodent models. Two rodent lines that contain coding deletions in the mammalian orthologs to the zebrafish mutants were used. Candidate drugs were injected intracranially and a decrease in seizure behaviors are monitored using video and […].
Briefly, mice were anesthetized with 3% isofluorane for 2 minutes. Eye glue was applied to the mouse, and anesthesia […] to 2% isofluorane. A “toe pinch” was administered to check anesthetic effect. The surgical area was then shaved while still connected to anesthesia. The anesthesia was increased to 2.5% isofluorane and the anesthetic cone placed over the nose. […]
Vorinostat (Drug #90) treatment reduces seizure occurrence in Kv1.1 null mice. Shown is a representative example of an electrographic seizure recorded from a Kv1.1−/−mouse. Three sets of epidural electroencephalogram (EEG) electrodes simultaneously recorded the signals across the rostral (top trace), medial (middle), and caudal (bottom trace) dorsal aspect of the neocortex. Bar graph of the mean number of seizures per day recorded from three Kv1.1−/−mice. Mice were recorded 24 hours per day for 3 consecutive days (No treatment, PND 43-45) and then received vorinostat injections (20 mg/kg, twice a day) for the next three consecutive days (PND 46-48).

kcna1 mutant zebrafish = assay: EEG / extracellular field recordings on live zebrafish larvae; assay type: in vivo; settings: kcna1 mutants plus vorinostat (10 μM)
Experimental: First, EEG recordings on live zebrafish were conducted. Briefly, acute seizure-like activity is measured in WT and mutant zebrafish larvae (5 dpf). Extracellular field recordings were obtained from the optic tectum of zebrafish larvae exposed first to vehicle, then washed out and then exposed to candidate drugs. Recordings are collected over 20 minutes and any decrease in small-amplitude “interictal”-like activity and/or large-amplitude “ictal”-like activity is quantified.

## N[C@@H](Cc1ccc(O)c(O)c1)C(=O)O [L-DOPA]
park2 morphants
  effect on increased basal respiration in park2 morphants: reverses this increased bioenergetics to WT levels

## CC(Cc1ccccc1)(NC(=O)CN)c1ccccc1 (stereo not shown) [Remacemide]
scn1a morphants [1]
  uncovered by the screening platform in genetic model (scn1a morphants): would not have uncovered
kcna1 morphants
  uncovered by the screening platform in genetic model (kcna1 morphants): would not have uncovered

## C[C@H](NCc1ccc(OCc2cccc(F)c2)cc1)C(N)=O [Safinamide]
scn1a morphants [1]
  uncovered by the screening platform in genetic model (scn1a morphants): would not have uncovered
kcna1 morphants
  uncovered by the screening platform in genetic model (kcna1 morphants): would not have uncovered

## CC(=O)N1N=C(c2ccc(N)cc2)c2cc3c(cc2C[C@H]1C)OCO3 [Talampanel]
scn1a morphants [1]
  uncovered by the screening platform in genetic model (scn1a morphants): would not have uncovered
kcna1 morphants
  uncovered by the screening platform in genetic model (kcna1 morphants): would not have uncovered

## CCCC(CCC)C(=O)O [Valproic acid]
kcna1 mutants
  effect on increased basal respiration in kcna1 mutant larvae: decreased
[2]
  events via which elevated basal respiration was blocked, PTZ treated larvae: non-mitochondrial-mediated events
[2]; 24-well plate
  effect on elevated basal respiration in PTZ treated larvae: blocked
scn1a morphants [3]
  effect on increased basal respiration in scn1a morphants: reduce basal respiration to WT levels
kcna1 morphant zebrafish
  events via which increased respiration was blocked, kcna1 morphants: mitochondrial-mediated events
  effect on elevated basal respiration in kcna1 morphant larvae: blocked
[4]
  effect on hyperactivity of kcna1 morphants: no effect

## O=C1CCc2ccc(OCCCCN3CCN(c4cccc(Cl)c4Cl)CC3)cc2N1 [aripiprazole]
shank3 morphants
  effect on increased basal respiration in shank3 morphants: Neither resperidon nor aripiprazole were effective

## CC(C)C[C@H]1C(=O)N2CCC[C@H]2[C@]2(O)O[C@](NC(=O)[C@@H]3C=C4c5cccc6[nH]c(Br)c(c56)C[C@H]4N(C)C3)(C(C)C)C(=O)N12 [bromocriptine]
park2 morphants
  effect on increased basal respiration in park2 morphants: no effect

## N.N.[Cl][Pt][Cl] [cisplatin]
Smarcbla morphants
  effect on increased basal respiration in smarcbla morphants: reverses this increased bioenergetics to WT levels
cdkn2b morphants
  effect on increased basal respiration in cdkn2b morphants: reverses this increased bioenergetics to WT levels

## O=P1(N(CCCl)CCCl)NCCCO1 (stereo not shown) [cyclophosphamide]
Smarcbla morphants
  effect on increased basal respiration in smarcbla morphants: no effect

## Cc1nc2n(c(=O)c1CCN1CCC(c3noc4cc(F)ccc34)CC1)CCCC2 [resperidon]
shank3 morphants
  effect on increased basal respiration in shank3 morphants: Neither resperidon nor aripiprazole were effective

## O=C(CCCCCCC(=O)Nc1ccccc1)NO [vorinostat]
Kv1.1 null mice
  number of seizures per day (video EEG): significantly reduced
kcna1 mutants
  effect on increased basal respiration in kcna1 mutant larvae: decreased
kcna1 morphant zebrafish
  events via which increased respiration was blocked, kcna1 morphants: mitochondrial-mediated events
  effect on elevated basal respiration in kcna1 morphant larvae: blocked
kcna1 mutant zebrafish
  effect on seizure-like activity (EEG traces): blocks
